Laboratory results reported in PubChem BioAssay AID2060606 (Molecular Pharmacology Branch, DTP, NCI, 2025).
pIC50: −log10 of the molar value.

System: 922993-354-T-J3-PDC complex spheroids, viability, % test/control
Assay: Anticancer human tumor 922993-354-T-J3-PDC patient-derived endometrial carcinoma cell line growth inhibition [CLK]
Settings: for pIC50: curve of first compound; for viability, T/C: stronger effect = lower value; active = viability on the fitted dose curve at most 10% of control; inactive = the rest
How it was run: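 Patient-derived tumor cells grown as complex spheroids with HUVEC endothelial cells and mesenchymal stem cells, treated with drug combinations. Concentrations descend in half-log steps from near clinical Cmax, or from 10 microM if Cmax unknown.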

[1] = second compound 0.0316 µM, first compound 0.0316 µM
[2] = second compound 0.0316 µM, first compound 0.1 µM
[3] = second compound 0.1 µM, first compound 0.0316 µM
[4] = second compound 0.1 µM, first compound 0.1 µM
[5] = second compound 0.316 µM, first compound 0.0316 µM
[6] = second compound 0.316 µM, first compound 0.1 µM
[7] = second compound 1 µM, first compound 0.0316 µM
[8] = second compound 1 µM, first compound 0.1 µM
[9] = second compound 3.16 µM, first compound 0.0316 µM
[10] = second compound 3.16 µM, first compound 0.1 µM
[11] = second compound 10 µM, first compound 0.0316 µM
[12] = second compound 10 µM, first compound 0.1 µM
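Note: spheroids exposed to the agents for 7 days before readout.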

CC(C)CC(NC(=O)C(Cc1ccccc1)NC(=O)c1cnccn1)B(O)O (stereo unspecified) + CNC(=O)c1ccc(Nc2nc(OC3CCCC3)c3c(-c4ccc5nc(C)oc5c4)c[nH]c3n2)c(OC)c1
7.95: pIC50 (second compound 0.1 µM)
8.28: pIC50 (second compound 0.316 µM)
active: viability, T/C (second compound 0.0316 µM, first compound 0.0949 µM) 1.67% | viability, T/C (second compound 0.0316 µM, first compound 0.3 µM) 2.25% | viability, T/C (second compound 0.1 µM, first compound 0.0949 µM) 2.17% | viability, T/C (second compound 0.1 µM, first compound 0.3 µM) 0.85% | viability, T/C (second compound 0.316 µM, first compound 0.03 µM) 6.18% | viability, T/C (second compound 0.316 µM, first compound 0.0949 µM) 2.17% | viability, T/C (second compound 0.316 µM, first compound 0.3 µM) 0.48% | viability, T/C (second compound 1 µM, first compound 0.03 µM) 3.9% | viability, T/C (second compound 1 µM, first compound 0.0949 µM) 0.77% | viability, T/C (second compound 1 µM, first compound 0.3 µM) 1.23% | viability, T/C (second compound 3.16 µM, first compound 0.00949 µM) 2.49% | viability, T/C (second compound 3.16 µM, first compound 0.03 µM) 2.35% | viability, T/C (second compound 3.16 µM, first compound 0.0949 µM) 0.79% | viability, T/C (second compound 3.16 µM, first compound 0.3 µM) 0.78% | viability, T/C (second compound 10 µM, first compound 0.00949 µM) 3.13% | viability, T/C (second compound 10 µM, first compound 0.03 µM) 3.29% | viability, T/C (second compound 10 µM, first compound 0.0949 µM) 0.81% | viability, T/C (second compound 10 µM, first compound 0.3 µM) 0.61%
> 9.02: pIC50 (second compound 1 µM) | pIC50 (second compound 3.16 µM) | pIC50 (second compound 10 µM)
7.99: pIC50 (second compound 0.0316 µM)
inactive: viability, T/C (second compound 0.0316 µM, first compound 0.000949 µM) 106% | viability, T/C (second compound 0.0316 µM, first compound 0.003 µM) 91.4% | viability, T/C (second compound 0.0316 µM, first compound 0.00949 µM) 53% | viability, T/C (second compound 0.0316 µM, first compound 0.03 µM) 15% | viability, T/C (second compound 0.1 µM, first compound 0.000949 µM) 79.8% | viability, T/C (second compound 0.1 µM, first compound 0.003 µM) 65.5% | viability, T/C (second compound 0.1 µM, first compound 0.00949 µM) 57.2% | viability, T/C (second compound 0.1 µM, first compound 0.03 µM) 10.3% | viability, T/C (second compound 0.316 µM, first compound 0.000949 µM) 80.2% | viability, T/C (second compound 0.316 µM, first compound 0.003 µM) 64.4% | viability, T/C (second compound 0.316 µM, first compound 0.00949 µM) 35.2% | viability, T/C (second compound 1 µM, first compound 0.000949 µM) 36.8% | viability, T/C (second compound 1 µM, first compound 0.003 µM) 32.6% | viability, T/C (second compound 1 µM, first compound 0.00949 µM) 14% | viability, T/C (second compound 3.16 µM, first compound 0.000949 µM) 30.9% | viability, T/C (second compound 3.16 µM, first compound 0.003 µM) 19.4% | viability, T/C (second compound 10 µM, first compound 0.000949 µM) 25% | viability, T/C (second compound 10 µM, first compound 0.003 µM) 15%

Cn1ncnc1[C@H]1c2n[nH]c(=O)c3cc(F)cc(c23)N[C@@H]1c1ccc(F)cc1 + CNC(=O)c1ccc(Nc2nc(OC3CCCC3)c3c(-c4ccc5nc(C)oc5c4)c[nH]c3n2)c(OC)c1
inactive: viability, T/C (second compound 0.0316 µM, first compound 0.000316 µM) 92% | viability, T/C (second compound 0.0316 µM, first compound 0.001 µM) 99.2% | viability, T/C (second compound 0.0316 µM, first compound 0.00316 µM) 88.9% | viability, T/C (second compound 0.0316 µM, first compound 0.01 µM) 104% | viability, T/C [1] 97.6% | viability, T/C [2] 84.6% | viability, T/C (second compound 0.1 µM, first compound 0.000316 µM) 109% | viability, T/C (second compound 0.1 µM, first compound 0.001 µM) 114% | viability, T/C (second compound 0.1 µM, first compound 0.00316 µM) 106% | viability, T/C (second compound 0.1 µM, first compound 0.01 µM) 104% | viability, T/C [3] 113% | viability, T/C [4] 94.4% | viability, T/C (second compound 0.316 µM, first compound 0.000316 µM) 77.3% | viability, T/C (second compound 0.316 µM, first compound 0.001 µM) 64.4% | viability, T/C (second compound 0.316 µM, first compound 0.00316 µM) 56.6% | viability, T/C (second compound 0.316 µM, first compound 0.01 µM) 73.2% | viability, T/C [5] 76.1% | viability, T/C [6] 57.2% | viability, T/C (second compound 1 µM, first compound 0.000316 µM) 36.9% | viability, T/C (second compound 1 µM, first compound 0.001 µM) 34% | viability, T/C (second compound 1 µM, first compound 0.00316 µM) 32.4% | viability, T/C (second compound 1 µM, first compound 0.01 µM) 33.9% | viability, T/C [7] 32.4% | viability, T/C [8] 27.1% | viability, T/C (second compound 3.16 µM, first compound 0.000316 µM) 28.9% | viability, T/C (second compound 3.16 µM, first compound 0.001 µM) 33.7% | viability, T/C (second compound 3.16 µM, first compound 0.00316 µM) 32.1% | viability, T/C (second compound 3.16 µM, first compound 0.01 µM) 30.8% | viability, T/C [9] 28% | viability, T/C [10] 21% | viability, T/C (second compound 10 µM, first compound 0.000316 µM) 28.8% | viability, T/C (second compound 10 µM, first compound 0.001 µM) 34.2% | viability, T/C (second compound 10 µM, first compound 0.00316 µM) 31.2% | viability, T/C (second compound 10 µM, first compound 0.01 µM) 28.8% | viability, T/C [11] 24.1% | viability, T/C [12] 20.8%
> 9.50: pIC50 (second compound 1 µM) | pIC50 (second compound 3.16 µM) | pIC50 (second compound 10 µM)
< 7.00: pIC50 (second compound 0.0316 µM) | pIC50 (second compound 0.1 µM) | pIC50 (second compound 0.316 µM)

O=C(c1cc(Cc2n[nH]c(=O)c3ccccc23)ccc1F)N1CCN(C(=O)C2CC2)CC1 + CNC(=O)c1ccc(Nc2nc(OC3CCCC3)c3c(-c4ccc5nc(C)oc5c4)c[nH]c3n2)c(OC)c1
inactive: viability, T/C [1] 99.4% | viability, T/C [2] 106% | viability, T/C (second compound 0.0316 µM, first compound 0.316 µM) 101% | viability, T/C (second compound 0.0316 µM, first compound 1 µM) 106% | viability, T/C (second compound 0.0316 µM, first compound 3.16 µM) 110% | viability, T/C (second compound 0.0316 µM, first compound 10 µM) 101% | viability, T/C [3] 104% | viability, T/C [4] 107% | viability, T/C (second compound 0.1 µM, first compound 0.316 µM) 98.3% | viability, T/C (second compound 0.1 µM, first compound 1 µM) 105% | viability, T/C (second compound 0.1 µM, first compound 3.16 µM) 111% | viability, T/C (second compound 0.1 µM, first compound 10 µM) 101% | viability, T/C [5] 73.5% | viability, T/C [6] 72.1% | viability, T/C (second compound 0.316 µM, first compound 0.316 µM) 67.1% | viability, T/C (second compound 0.316 µM, first compound 1 µM) 66.5% | viability, T/C (second compound 0.316 µM, first compound 3.16 µM) 66% | viability, T/C (second compound 0.316 µM, first compound 10 µM) 51.8% | viability, T/C [7] 36.1% | viability, T/C [8] 38.5% | viability, T/C (second compound 1 µM, first compound 0.316 µM) 32.3% | viability, T/C (second compound 1 µM, first compound 1 µM) 35.6% | viability, T/C (second compound 1 µM, first compound 3.16 µM) 44.1% | viability, T/C (second compound 1 µM, first compound 10 µM) 39% | viability, T/C [9] 32.2% | viability, T/C [10] 36.8% | viability, T/C (second compound 3.16 µM, first compound 0.316 µM) 25.4% | viability, T/C (second compound 3.16 µM, first compound 1 µM) 34% | viability, T/C (second compound 3.16 µM, first compound 3.16 µM) 28.4% | viability, T/C (second compound 3.16 µM, first compound 10 µM) 33.5% | viability, T/C [11] 34.1% | viability, T/C [12] 24.7% | viability, T/C (second compound 10 µM, first compound 0.316 µM) 31.5% | viability, T/C (second compound 10 µM, first compound 1 µM) 34.2% | viability, T/C (second compound 10 µM, first compound 3.16 µM) 34.8% | viability, T/C (second compound 10 µM, first compound 10 µM) 33.8%
< 5.00: pIC50 (second compound 0.0316 µM) | pIC50 (second compound 0.1 µM) | pIC50 (second compound 0.316 µM)
> 7.50: pIC50 (second compound 1 µM) | pIC50 (second compound 3.16 µM) | pIC50 (second compound 10 µM)
